According to patent US20130129840A1, “COMBINATION THERAPY USING A RUTHENIUM COMPLEX” (Niiki Pharma Inc., priority 2010, published 2013):

How the values were obtained:
cancer = details: cited from earlier work
colon cancer cells = details: preclinical studies, Kapitza et al. 2005; cited from earlier work
[1] = system: Hep3B liver carcinoma xenograft; experiment: Hep3B liver carcinoma xenograft assay, survival; type: in vivo, CB17 SCID mice; details: SCID mice, test drug 30 mg/kg i.v. day 1 and 8, sorafenib 25 mg/kg p.o. days 1-5 and 8-12, control 33 days
Procedure: Xenograft Assay: CB17 severe combined immunodeficient (SCID) female mice were used for all in vivo studies. The mice received food and water ad libitum. For tumor application, logarithmically growing Hep3B cells in cell culture were collected by trypsinization and washed once in serum-free culture medium. The cells were then pelleted and resuspended in culture medium to a final cell count of 2×10^7/ml. 50 μl of the cell suspension was injected s.c. in the right flank of each mouse. Treatment started when all animals in the study had established tumors of a size of about 3×3 mm.
Sorafenib (LC Laboratories, Woburn, Mass., USA) was dissolved in DMSO (50 mg/ml), further diluted in Cremophor EL/95% ethanol (50:50; Sigma), which was followed by a 1:4 dilution in water. 100 μl sorafenib was administered p.o. once daily at 5 consecutive days for two weeks at a dose of 25 mg/kg body weight (days 1-5 and days 8-12).
Tumor size was calculated using the equation (l×w^2)/2, where l and w refer to the larger and smaller dimensions, respectively, of the tumor. 4 mice were used in each group for each data point.

Row | Structure (SMILES) | anti-cancer activities in a phase I clinical trial (cancer) | inducing apoptosis in colon cancer cells (colon cancer cells) | increase in life span / mean survival vs. control [1] [fold] | mean survival [1] [days]
1 | [Cl-].[Cl-].[Cl-].[Cl-].[Ru+3].c1ccc2[nH][nH+]cc2c1.c1ccc2[nH]ncc2c1.c1ccc2[nH]ncc2c1 [KP1019, indazolium trans-[tetrachlorobis(1H-indazole)ruthenate (III)]] | some anti-cancer activities | effective in inducing apoptosis |  | 
2 | [Cl][Ru-]([Cl])([Cl])[Cl].[Na+].c1ccc2[nH]ncc2c1.c1ccc2[nH]ncc2c1 [Test drug] |  | effective in inducing apoptosis | 2.4 | 80
3 | CNC(=O)c1cc(Oc2ccc(NC(=O)Nc3ccc(Cl)c(C(F)(F)F)c3)cc2)ccn1 [sorafenib, reference compound] |  |  | 1.9 | 60
